Reference: patent US6034211A, “β-sheet nucleating peptidomimetics” (priority 1996, dated 2000)
Starred links: 1 amine or outer side, 2 acyl side, 3 side chain; linkers in the order of their positions; H or OH if unused. Non-standard residues stand in square brackets, D forms with d. Residues, ends and D or L forms follow the SMILES beside them. X1 = O=C(CCc1ccccc1-c1cccc(CCN[*:1])c1)[*:2]; Orn = NCCC[C@H](N)C(=O)O

Assays:
[1] = Amide proton/deuterium exchange studies by NMR; format: physicochemical; conditions: for rates of amide proton/deuterium exchange of the Leu and Val residues flanking 1 relative to the remaining residues: peptide A 3.0-3.3 mM, pH 3.4-3.6, peptide D 2.5-2.9 mM, pH 4.1-5.1
Procedure: Information concerning the hydrogen-bonding network within a peptide containing residue 1A in aqueous solution was obtained from amide exchange studies of peptide A (3.0-3.3 mM, pH 3.4-3.6) and peptide D (2.5-2.9 mM, pH 4.1-5.1) where peptides A and D appear to be unstructured by far-UV CD.
Amide exchange studies at pH 3.2 were used to examine the hydrogen-bonding properties of peptide G which is expected to be partially folded on the basis of the studies discussed above.

[2] = Far-UV circular dichroism studies of peptide folding (random coil vs β-sheet); format: physicochemical
Procedure: Heptapeptide A has an -amino acid sequence homologous to a 4-(2-aminoethyl)-6-dibenzofuranpropionic acid-based heptapeptide studied previously, allowing comparsion of the efficacy of the biphenyl- and dibenzofuran-based amino acids as nucleators in a momologous α-aminoacid sequence. Peptide B, having a Phe in place of Leu-3, was prepared to test the feasibility of using an aromatic-aromatic interaction to stabilize the hydrophobic cluster and facilitate β-sheet folding. In peptide C, ornithine-2 was replaced with Glu to probe the effect of an addition long-range residue-residue electrostatic interaction (salt bridge) on β-sheet stability in the context of a heptapeptide.
The high charge density on peptides D and E should prevent the favorable strand-strand interactions required for sheet formation at low pH. The removal of two or more of the charges on the Lys ε-ammonium groups effected by increasing the pH is expected to facilitate intramolecular folding followed by self-assembly. A leucine was employed as one of the flanking residues in these peptides instead of valine because the increased side chain flexibility should maximize packing interactions required for hydrophobic cluster formation. […] Peptide E was identical to peptide D except that it incorporated residue 2A in place of residue 1A. […] Peptide F was prepared to probe the importance of hydrophobic cluster formation in β-sheet folding mediated by residue 1A. The flanking hydrophobic residues in peptide D were replaced with hydrophilic lysine residues in peptide F while maintaining a highly momologous amino acid composition and an amphiphilic periodicity of 2A.

[3] = Analytical equilibrium ultracentrifugation (solution molecular weight, quaternary structure)

Compound	rates of amide proton/deuterium exchange of the Leu and Val residues flanking 1 relative to the remaining residues [1]	association state by concentration dependent far-UV CD ([2]; 0.015-0.4 mM, pH 7, mean residue ellipticity at 225 nm constant)	pH dependence of far-UV CD spectra ([2]; 25° C.)	structure by far-UV CD ([2]; 25° C.)	aggregation upon heating ([2]; upon heating)	change of structure upon heating (far-UV CD) ([2]; upon heating)	observed solution molecular weight (expected monomer 1644) ([3]; 0.11 mM, pH 6.8)	association state by analytical equilibrium ultracentrifugation ([3]; within the concentration and pH ranges studied)	rates of amide proton exchange of Leu-6, Val-8, Val-4 and Val-10 relative to the remaining residues ([1]; pH 3.2)
CC(C)C[C@H](NC(=O)[C@H](CCCN)NC(=O)[C@@H](NC(=O)CCc1ccccc1-c1cccc(CCNC(=O)[C@H](CC(C)C)NC(=O)[C@H](CCCN)NC(=O)[C@@H](N)C(C)C)c1)C(C)C)C(N)=O [A, Val Orn Leu 1A Val Orn Leu] (H-V[Orn]L[X1]V[Orn]L-NH2)	at least an order of magnitude slower	–	–	–	–	–	–	–	–
CC(C)C[C@H](NC(=O)[C@H](CCCCN)NC(=O)[C@@H](NC(=O)[C@H](CCCCN)NC(=O)[C@@H](NC(=O)[C@@H](N)CCCCN)C(C)C)C(C)C)C(=O)NCCc1cccc(-c2ccccc2CCC(=O)N[C@H](C(=O)N[C@@H](CCCCN)C(=O)N[C@H](C(=O)N[C@@H](CCCCN)C(=O)N[C@H](C(=O)N[C@@H](CCCCN)C(N)=O)C(C)C)C(C)C)C(C)C)c1 [Peptide D, Lys Val Lys Val Lys Leu 1A Val Lys Val Lys Val Lys] (H-KVKVKL[X1]VKVKVK-NH2)	at least an order of magnitude slower	–	–	–	–	–	–	–	–
Lys Val N--Me--Leu Val Lys Leu 1A Val Lys Val N--Me--Leu Val Lys [Peptide G]	–	monomeric	little dependence on pH	both random coil and β-sheet structure	does not aggregate	increase in β-sheet structure	1600±80	monomeric	significantly slower
